Reference: ChEMBL document CHEMBL4130353, “2-Substituted 3,7,8-trimethylnaphtho[1,2-b]furan-4,5-diones as specific L-shaped NQO1-mediated redox modulators for the treatment of non-small cell lung cancer” (Eur J Med Chem, 2017)
Active and inactive are the calls of the source. The calls are words filed in the database; no cut-off is given here.

Assays:
[1] = biological target: NAD(P)H dehydrogenase [quinone] 1 (Homo sapiens) (UniProt P15559); assay: Substrate activity at NQO1 in human A549 cells assessed as induction of ROS-induced ERK phosphorylation at 10 uM after 3 hrs in presence of DIC by Western blot analysis relative to control; assay type: cell-based
Mus musculus = assay: Toxicity in athymic nude mouse xenografted with human A549 cells assessed as reduction in body weight at 50 mg/kg, iv administered every other day for 3 weeks relative to control; assay type: organism-based; parameters: scale not given: the % may be the effect or the level left; settings: in vivo, 504 h
A549 [2] = assay: Induction of apoptosis in human A549 cells assessed as increase in cleaved PARP expression at 10 uM after 24 hrs in presence of NAC by Western blot analysis; assay type: functional, cell-based
HEK293 = assay: Cytotoxicity against HEK293 cells assessed as cell growth inhibition preincubated for 24 hrs followed by compound washout measured after 72 hrs by MTT assay; assay type: functional, cell-based; settings: Homo sapiens
[3] = biological target: NAD(P)H dehydrogenase [quinone] 1 (Homo sapiens) (UniProt P15559); assay: Substrate activity at NQO1 in human A549 cells assessed as induction of ROS-induced JNK phosphorylation at 10 uM after 3 hrs in presence of NAC by Western blot analysis relative to control; assay type: cell-based
HCT-116 = assay: Cytotoxicity against human HCT116 cells assessed as cell growth inhibition preincubated for 24 hrs followed by compound washout measured after 72 hrs by MTT assay; assay type: functional, cell-based
[4] = biological target: NAD(P)H dehydrogenase [quinone] 1 (Homo sapiens) (UniProt P15559); assay: Substrate activity at NQO1 in human A549 cells assessed as induction of ROS-induced Akt phosphorylation at S473 at 5 uM after 3 hrs by Western blot analysis relative to control; assay type: cell-based
[5] = biological target: NAD(P)H dehydrogenase [quinone] 1 (Homo sapiens) (UniProt P15559); assay: Substrate activity at NQO1 in human A549 cells assessed as induction of ROS-induced p38 phosphorylation at T180/Y182 at 10 uM after 3 hrs by Western blot analysis relative to control; assay type: cell-based
HepG2 = assay: Cytotoxicity against human HepG2 cells assessed as cell growth inhibition preincubated for 24 hrs followed by compound washout measured after 72 hrs by MTT assay; assay type: functional, cell-based
A549 [6] = assay: Induction of apoptosis in human A549 cells assessed as nuclei condensation at 0.1 to 5 uM after 24 hrs by DAPI-staining based microscopy; assay type: functional, cell-based
[7] = biological target: NAD(P)H dehydrogenase [quinone] 1 (Homo sapiens) (UniProt P15559); assay: Substrate activity at NQO1 in human A549 cells assessed as induction of ROS-induced Akt phosphorylation at […] at 10 uM after 3 hrs by Western blot analysis relative to control; assay type: cell-based
A549 [8] = assay: Cytotoxicity against human A549 cells assessed as cell growth inhibition preincubated for 24 hrs followed by compound washout measured after 72 hrs in presence of NQO1 inhibitor DIC by MTT assay; assay type: functional, cell-based
[9] = biological target: NAD(P)H dehydrogenase [quinone] 1 (Homo sapiens) (UniProt P15559); assay: Substrate activity at NQO1 in human A549 cells assessed as induction of ROS-induced p38 phosphorylation at T180/Y182 at 10 uM after 3 hrs in presence of NAC by Western blot analysis relative to control; assay type: cell-based
A549 [10] = assay: Effect on total ERK protein levels in human A549 cells at 10 uM after 3 hrs by Western blot analysis relative to control; assay type: ADME, cell-based; settings: a549, 3 h
A549 [11] = assay: Effect on total p38 protein levels in human A549 cells at 10 uM after 3 hrs in presence of NAC by Western blot analysis relative to control; assay type: ADME, cell-based; settings: a549, 3 h
[12] = Lipophilicity, log D of the compound at pH 7.4; assay type: physicochemical; settings: buffer
A549 [13] = assay: Antitumor activity against human A549 cells xenografted in athymic nude mouse assessed as tumor growth inhibition at 15 mg/kg, iv administered every other day for 3 weeks measured every day during compound dosing relative to control; assay type: functional; settings: 504 h, read-out: TGI
A549 [14] = assay: Effect on total AKT protein levels in human A549 cells at 5 uM after 3 hrs by Western blot analysis relative to control; assay type: ADME, cell-based; settings: a549, 3 h
[15] = biological target: NAD(P)H dehydrogenase [quinone] 1 (Homo sapiens) (UniProt P15559); assay: Substrate activity at NQO1 in human A549 cells assessed as induction of enzyme-catalyzed ROS production at 10 uM after 1 to 3 hrs by DCFH-DA-based flow cytometry; assay type: cell-based
L02 = assay: Cytotoxicity against human L02 cells assessed as cell growth inhibition preincubated for 24 hrs followed by compound washout measured after 72 hrs by MTT assay; assay type: cell-based
[16] = biological target: NAD(P)H dehydrogenase [quinone] 1 (Homo sapiens) (UniProt P15559); assay: Substrate activity at NQO1 in human A549 cells assessed as induction of ROS-induced ERK phosphorylation after 3 hrs by Western blot analysis; assay type: cell-based
[17] = biological target: NAD(P)H dehydrogenase [quinone] 1 (Homo sapiens) (UniProt P15559); assay: Substrate activity at NQO1 in human A549 cells assessed as induction of ROS-induced JNK phosphorylation at 5 uM after 3 hrs by Western blot analysis relative to control; assay type: cell-based
A549 [18] = assay: Induction of apoptosis in human A549 cells assessed as increase in cleaved PARP expression at 10 uM after 24 hrs in presence of DIC by Western blot analysis; assay type: functional, cell-based
A549 [19] = assay: Effect on total p38 protein levels in human A549 cells at 10 uM after 3 hrs in presence of DIC by Western blot analysis relative to control; assay type: ADME, cell-based; settings: a549, 3 h
[20] = biological target: NAD(P)H dehydrogenase [quinone] 1 (Homo sapiens) (UniProt P15559); assay: Substrate activity at NQO1 in human A549 cells assessed as induction of ROS-induced p38 phosphorylation at T180/Y182 at 5 uM after 3 hrs by Western blot analysis relative to control; assay type: cell-based
A549 [21] = assay: Effect on total AKT protein levels in human A549 cells at 10 uM after 3 hrs in presence of NAC by Western blot analysis relative to control; assay type: ADME, cell-based; settings: a549, 3 h
[22] = biological target: NAD(P)H dehydrogenase [quinone] 1 (Homo sapiens) (UniProt P15559); assay: Substrate activity at NQO1 in human A549 cells assessed as induction of ROS-induced ERK phosphorylation at 5 uM after 3 hrs by Western blot analysis relative to control; assay type: cell-based
[23] = biological target: NAD(P)H dehydrogenase [quinone] 1 (Homo sapiens) (UniProt P15559); assay: Substrate activity at NQO1 in human A549 cells assessed as induction of enzyme-catalyzed ROS production at 10 uM after 1 to 3 hrs in presence of DIC by DCFH-DA-based flow cytometry; assay type: cell-based
[24] = biological target: NAD(P)H dehydrogenase [quinone] 1 (Homo sapiens) (UniProt P15559); assay: Substrate activity at NQO1 in human A549 cells assessed as induction of ROS-induced ERK phosphorylation at 10 uM after 3 hrs by Western blot analysis relative to control; assay type: cell-based
[25] = biological target: NAD(P)H dehydrogenase [quinone] 1 (Homo sapiens) (UniProt P15559); assay: Substrate activity at NQO1 in human A549 cells assessed as induction of ROS-induced ERK phosphorylation at 10 uM after 3 hrs in presence of NAC by Western blot analysis relative to control; assay type: cell-based
A549 [26] = assay: Effect on total ERK protein levels in human A549 cells at 1 uM after 3 hrs by Western blot analysis relative to control; assay type: ADME, cell-based; settings: a549, 3 h
A549 [27] = assay: Reduction of intracellular NADPH levels in human A549 cells xenografted in athymic nude mouse at 15 to 30 mg/kg, iv administered every other day for 3 weeks by fluorescent NADP+/NADPH detection based assay; assay type: functional, organism-based

Sequence of NAD(P)H dehydrogenase [quinone] 1 (Homo sapiens) (P15559 whole entry): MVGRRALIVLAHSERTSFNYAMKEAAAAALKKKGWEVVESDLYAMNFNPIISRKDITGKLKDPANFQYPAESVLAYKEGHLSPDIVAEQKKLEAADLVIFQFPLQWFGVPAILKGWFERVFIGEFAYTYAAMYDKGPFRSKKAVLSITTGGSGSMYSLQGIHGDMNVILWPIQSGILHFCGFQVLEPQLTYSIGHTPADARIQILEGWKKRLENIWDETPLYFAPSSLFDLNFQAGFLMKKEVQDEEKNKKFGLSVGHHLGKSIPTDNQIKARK

Structure (SMILES): Cc1cc2c(cc1C)-c1oc(CNc3ccc(CN4CCOCC4)cc3)c(C)c1C(=O)C2=O
- fold change (FC) [1]: 1.27
- Activity (Mus musculus): 18%
- Activity (A549 [2]): inactive
- IC50 (HEK293): 3.9 µM
- fold change (FC) [3]: 12.5
- IC50 (HCT-116): 4.9 µM
- fold change (FC) [4]: 2.01
- fold change (FC) [5]: 16.4
- IC50 (HepG2): 4.3 µM
- Activity (A549 [6]): Active
- fold change (FC) [7]: 4.18
- IC50 (A549 [8]): > 50 µM
- fold change (FC) [9]: 11.2
- fold change (FC) (A549 [10]): 1.02
- fold change (FC) (A549 [11]): 0.99
- logD [12]: 3.1
- inhibition in vivo at 15 mg/kg (A549 [13]): 65.8%
- fold change (FC) (A549 [14]): 1.14
- Activity [15]: Active
- IC50 (L02): 35 µM
- Activity [16]: Dose-dependent effect
- fold change (FC) [17]: 25.4
- Activity (A549 [18]): inactive
- fold change (FC) (A549 [19]): 1.03
- fold change (FC) [20]: 12.1
- fold change (FC) (A549 [21]): 1.07
- fold change (FC) [22]: 2.41
- Activity [23]: inactive
- fold change (FC) [24]: 2.49
- fold change (FC) [25]: 2.21
- fold change (FC) (A549 [26]): 1.01
- Activity (A549 [27]): Active
